Paper PMC2904697, “A Screen for Kinetochore-Microtubule Interaction Inhibitors Identifies Novel Antitubulin Compounds” (PLoS ONE, 2010)
Values joined by “and” are separate entries in the source; they are usually repeats but may differ in a detail not shown here. Identical values can stand only once.

Tests used:
[1] = system: recombinant human Ndc80 kinetochore complex binding to taxol-stabilized microtubules; assay: Ndc80^488 complex-MT binding assay (fluorescence microscopy / TIRF); details: for Effect on binding of the Ndc80^488 complex to taxol-stabilized MTs: compound 50 µmol/l, wide-field fluorescence microscopy; for IC50: total internal reflection fluorescence microscopy, Ndc80^488 complex 0.1 µmol/l, taxol-stabilized MTs
From the text: To screen compound libraries for molecules inhibiting binding of the outer kinetochore Ndc80 complex (Ndc80, Nuf2, Spc24, Spc25) to MTs, we used a fluorescence microscopy-based in vitro approach (Fig. 1). First, the recombinant human Ndc80 construct, used to crystallize the complex, was produced in Escherichia coli using a bicistronic plasmid from which the Nuf2-Spc24 and Ndc80-Spc25 peptides were generated (Fig. 1A). Following their intracellular assembly, the complex was purified from E. coli cell extract based on the GST tag at the N-terminus of Nuf2. The complex was released in solution with PreScission Protease (its recognition sequence was introduced between the GST tag and the NUF2 coding sequence) and was separated from contaminants by gel filtration chromatography (Fig. 1A). The high degree of purity of the preparation was confirmed by SDS-PAGE analysis and coomassie staining, which identified only both peptides (Fig. 1B). Next, the Ndc80 complex was fluorescently labeled with the Alexa Fluor 488 C5-maleimide (next named the Ndc80^488 complex) and was separated from unreacted fluorophore by gel filtration chromatography. The final preparation was highly pure as evidenced by gel filtration analysis and detection at 519 nm (emission maximum of the Alexa Fluor 488 dye) and at 280 nm (intrinsic protein fluorescence) (Fig. 1B). Next, the Ndc80^488 complex (0.1 µmol/l) was incubated with 10,200 compounds (comprising the Chembridge DIVERset and a compound collection from the Univ. Rome) at a starting concentration of 50 µmol/l. Binding (or lack thereof) of the complex to rhodamine-labeled taxol-stabilized MTs (0.1 µmol/l) was scored by wide-field fluorescence microscopy (Fig. 1C; images in Fig. 2A). […] Total internal reflection fluorescence microscopy was used to establish the IC50 value of the compound, which was measured to be ∼20 µmol/l (Fig. 2C).
Recombinant human Ndc80 complex (Ndc80^Bonsai complex) was produced in Escherichia coli using a bicistronic expression plasmid (Fig. 1A, [12]). Following transcription from the TAC promoter/operator by induction with 0.4 mmol/l IPTG (20°C, 15 h), GST-Nuf2-Spc24 and Ndc80-Spc25 polypeptides were generated, which dimerized intracellulary into the GST-Ndc80 complex. The complex was isolated from E. coli cell extract following incubation with glutathione beads. The complex was released from the beads with PreScission Protease (GE Healthcare Life Sciences) and contaminants were removed by gel filtration chromatography (Superdex 200, GE Healthcare Life Sciences). On average 4 mg of Ndc80 complex were obtained from 1 liter of cell culture. Next, 1 mg Ndc80 complex was labeled with 0.1 mg Alexa Fluor 488 C5-maleimide fluorophore (Invitrogen) at a 1.5-2 stoichiometry. The fluorescent complex (Ndc80^488 complex) was separated from unreacted fluorophore by gel filtration chromatography (Fig. 1B) and was then used to screen for compounds inhibiting Ndc80^488 complex-MT binding (Fig. 1C). The Ndc80^488 complex is fully functional as it is recruited to and acts at kinetochores when injected into prometaphase HeLa cells.
MTs were polymerized (30 min, 37°C) from a 1∶10 mixture of rhodamine-labeled:unlabeled bovine brain αβ-tubulin (Cytoskeleton) in BRB-80 buffer (80 mmol/l PIPES pH 6.8, 1 mmol/l MgCl2, 1 mmol/l EGTA) and were then stabilized with 20 µmol/l taxol. The Ndc80^488 complex (0.1 µmol/l) was incubated with 100 µmol/l compound (30 min, 24°C) in 96-well polypropylene plates (Eppendorf). The 10,000 compound DIVERset library (Chembridge) and 200 compounds from the Department of Medicinal Chemistry and Technologies, University of Rome La Sapienza were used in the screen. Next, the MTs (100 nmol/l) were added to the compound-Ndc80^488 complex solution in a 1∶1 v/v ratio. After incubation (10 min, 24°C), the reaction mixtures were transferred to 96-well glass-bottom plates (Greiner Bio-one). […]

HeLa cells = assay: Spindle integrity and reversibility in HeLa cells (confocal IF imaging); type: cell-based, human; details: for Time after washout until all cells had arrested with a mitotic spindle (reversibility): compound B 5 µmol/l, washout and release into MG132 containing medium
Description: At compound B concentrations of 5 µmol/l and above, the cells arrested robustly in metaphase (∼15 h) and then underwent cell death, as diagnosed by cell shrinkage (Fig. 3B). […] This phenotype is indicative of chromatids being unable to bind to spindle MTs and/or of spindle defects, as observed with nocodazole (Fig. 3C). […] Because drugs that inhibit tubulin polymerization also destabilize MTs, we next probed whether compound B destabilized metaphase spindles. We arrested HeLa cells in metaphase using 10 µmol/l of proteosome inhibitor MG132. […] Thus, compound B prevents tubulin assembly and destabilizes spindle MTs in cells.
To probe whether the activity of compound B is reversible or not, we synchronously released G1/S arrested HeLa cells into fresh medium containing 5 µmol/l compound B (nocodazole was used as the positive control). The cells efficiently arrested in […] due to absence of a mitotic spindle (Fig. 3E, left column of images in each set). Compound B and nocodazole were then washed out and the cells were released in MG132 containing medium.
G1/S synchronization with 2.5 mmol/l thymidine was carried out for 16 h. IF imaging (Leica TCS SP2 confocal microscope) was performed on cells fixed with 4% paraformaldehyde, permeabilized with 0.1% Triton X-100 and treated with 4% BSA. The cells were incubated with appropriate antibodies diluted in 4% BSA in PBS. Primary antibodies used in IF imaging were mouse monoclonal antiNdc80 antibody (1∶1000, Genetex Clone 9G3.23), CREST serum (1∶50, Antibodies Incorporation) and mouse monoclonal anti-α-tubulin antibody (1∶2000, Sigma-Aldrich Clone B512). Secondary antibodies used were Alexa Fluor 488 (1∶150), Cy3 (1∶400) and Cy5 (1∶50) (Jackson Immunoresearch).

[2] = system: colchicine site in αβ-tubulin; assay: [3H]colchicine competition (DEAE-cellulose filter method); type: binding; details: [3H]colchicine 5 µmol/l, tubulin 1 µmol/l
From the text: Agents that inhibit tubulin polymerization and destabilize MTs include the colchicinoids, combretastatins, benzimidazole carbamates, vinca alkaloids, and maytansinoids. These drugs act primarily at β-tubulin in the αβ-heterodimer, albeit at different sites. Colchicinoids, combretastatins and benzimidazole carbamates (e.g. nocodazole) localize to the colchicine site near the C-terminus of β-tubulin at the αβ-tubulin intradimer interface, [16], whereas vinca alkaloids and maytansinoids localize to the N-terminal GTPase domain of β-tubulin [17], [18]. […] Its binding affinity, however, was ∼3-fold lower than that of nocodazole (compare values at 5 µmol/l and 20 µmol/l, Fig. 5C).
Tubulin binding of [^3H]colchicine was measured by the DEAE-cellulose filter method. Reaction mixtures contained 1.0 µmol/l αβ-tubulin, 1.0 mol/l monosodium glutamate, 0.1 mol/l glucose-1-phosphate, 1.0 mmol/l MgCl2, 1.0 mmol/l GTP, 0.5 mg/ml BSA, 5% DMSO, 5 µmol/l [^3H]colchicine, and inhibitor at 1, 5, 20 or 50 µmol/l. These reaction conditions strongly stabilize the colchicine-binding activity of tubulin [21].

SMILES | Effect on binding of the Ndc80^488 complex to taxol-stabilized MTs [1] | IC50 [1] | Effect on metaphase spindles of MG132-arrested cells (HeLa cells; HeLa arrested with 10 µmol/l MG132, 10 µmol/l compound) | Spindle formation in cells released from G1/S (HeLa cells; HeLa, 10 µmol/l compound, confocal IF) | Time after washout until all cells had arrested with a mitotic spindle (reversibility) (HeLa cells; HeLa) [h] | Binding affinity for the colchicine site, fold lower than that of nocodazole ([2]; values at 5 and 20 µmol/l compared) [fold] | Inhibition of [3H]colchicine binding to tubulin ([2]; compound 1–50 µmol/l) | Fold more active than compound B in the Ndc80^488 complex-MT binding assay ([1]; versus compound B) [fold] | Fold more active than compound B as inhibitors of [3H]colchicine-tubulin binding [2] [fold]
Cc1c(C(=O)OCC2CCCO2)[nH]c2c1C(=O)CC(c1ccco1)C2 (stereo not drawn) [compound B, 6-furan-2-yl-3-methyl-4-oxo-4,5,6,7,-tetrahydro-1H-indole-2-carboxylic acid tetrahydro-furan-2-ylmethyl ester] | active | ~20 µM and 20 µM | depolymerized the spindle | All cells lacked a mitotic spindle | ≤ 3 | ~3 | significantly inhibited | – | –
CCSCCOC(=O)c1[nH]c2c(c1C)C(=O)C[C@@H](c1ccco1)C2 [A8] | – | ~1 µM and 1 µM | – | – | – | – | – | ~20 | 3
COC(=O)Nc1nc2ccc(C(=O)c3cccs3)cc2[nH]1 [nocodazole, reference compound] | did not prevent | – | – | – | ≤ 3 | – | – | – | –
